Source: BindingDB's records for patent US12466821 (Novartis, 2025)

Biological target: T1, DNA polymerase catalytic subunit (Human herpesvirus 1 (strain 17), UniProt P04293)
T1 sequence (P04293 whole entry): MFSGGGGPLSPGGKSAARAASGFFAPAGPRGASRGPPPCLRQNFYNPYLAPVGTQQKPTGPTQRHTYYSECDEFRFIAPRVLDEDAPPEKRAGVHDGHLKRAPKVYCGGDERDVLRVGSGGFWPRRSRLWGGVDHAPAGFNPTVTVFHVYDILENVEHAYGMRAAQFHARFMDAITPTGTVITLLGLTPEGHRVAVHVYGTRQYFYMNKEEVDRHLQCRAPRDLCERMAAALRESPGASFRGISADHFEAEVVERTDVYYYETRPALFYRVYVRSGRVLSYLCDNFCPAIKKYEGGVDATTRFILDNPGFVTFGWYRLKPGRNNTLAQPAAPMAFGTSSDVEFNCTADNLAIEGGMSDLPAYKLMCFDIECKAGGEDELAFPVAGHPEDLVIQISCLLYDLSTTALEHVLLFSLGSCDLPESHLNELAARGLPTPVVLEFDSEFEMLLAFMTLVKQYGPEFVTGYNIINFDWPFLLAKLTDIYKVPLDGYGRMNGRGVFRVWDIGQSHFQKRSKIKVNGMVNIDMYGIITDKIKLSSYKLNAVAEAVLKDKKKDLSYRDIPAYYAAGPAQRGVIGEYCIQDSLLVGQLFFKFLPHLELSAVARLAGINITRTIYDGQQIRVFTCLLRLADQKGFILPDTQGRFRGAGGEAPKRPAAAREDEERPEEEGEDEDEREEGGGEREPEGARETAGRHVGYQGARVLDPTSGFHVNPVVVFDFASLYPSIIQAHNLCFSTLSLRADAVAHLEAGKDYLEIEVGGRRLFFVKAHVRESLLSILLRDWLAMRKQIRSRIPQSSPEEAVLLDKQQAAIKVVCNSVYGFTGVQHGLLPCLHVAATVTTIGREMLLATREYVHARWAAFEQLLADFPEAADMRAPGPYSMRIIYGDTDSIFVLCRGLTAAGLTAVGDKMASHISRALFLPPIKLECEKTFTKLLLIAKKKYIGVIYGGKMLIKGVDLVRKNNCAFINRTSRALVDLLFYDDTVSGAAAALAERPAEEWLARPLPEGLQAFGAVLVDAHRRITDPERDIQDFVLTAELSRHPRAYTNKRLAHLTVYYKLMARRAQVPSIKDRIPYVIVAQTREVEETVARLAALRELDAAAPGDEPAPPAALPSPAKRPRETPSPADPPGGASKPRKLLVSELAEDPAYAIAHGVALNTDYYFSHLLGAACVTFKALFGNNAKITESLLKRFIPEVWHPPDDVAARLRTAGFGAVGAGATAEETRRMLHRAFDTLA

| Structure (SMILES) | IC50 [nM] |
| --- | --- |
| N#Cc1ccc(CNC(=O)c2ccc3n(c2=O)CCN(CC2(S(=O)(=O)CCCO)CC2)C3=O)cc1F [US12466821, Example 23] | 124 |
| CS(=O)(=O)CCN1CCn2c(ccc(C(=O)NCc3ccc(Cl)cc3)c2=O)C1=O [US12466821, Example 51] | 789 |
| CN(C)S(=O)(=O)C1(CN2CCn3c(ccc(C(=O)NCc4ccc(C#N)cc4)c3=O)C2=O)CC1 [US12466821, Example 90-2] | 19.8 |
| N#CCS(=O)(=O)C1(CN2CCn3c(ccc(C(=O)NCc4ccc(Cl)cc4)c3=O)C2=O)CC1 [US12466821, Example 108-1] | 116 |
| CS(=O)(=O)CCCN1CCn2c(c(C3CC3)cc(C(=O)NCc3ccc(Cl)cc3)c2=O)C1=O [US12466821, Example 130] | 2420 |
| O=C(NCc1ccc(Cl)cc1)c1cc(C2CC2)c2n(c1=O)CCN(CCN1CCCS1(=O)=O)C2=O [US12466821, Example 131] | 311 |
| O=C(NCc1ccc(Cl)cc1)c1cc(CC2CC2)c2n(c1=O)CCN(CCN1CCCS1(=O)=O)C2=O [US12466821, Example 133] | 324 |
| CCc1cc(C(=O)NCc2ccc(Cl)cc2)c(=O)n2c1C(=O)N(CCN1CCCS1(=O)=O)CC2 [US12466821, Example 135] | 342 |
| O=C(NCc1ccc(Cl)cc1)c1cc(C(F)F)c2n(c1=O)CCN(CCN1CCCS1(=O)=O)C2=O [US12466821, Example 144] | 1110 |
| CS(=O)(=O)CCCN1CCn2c(c(C(F)(F)F)cc(C(=O)NCc3ccc(Cl)cc3)c2=O)C1=O [US12466821, Example 146] | 14800 |
| Cc1cc(C(=O)NCc2ccc(Cl)cc2)c(=O)n2c1C(=O)N(CC1(N3CCCS3(=O)=O)CC1)CC2 [US12466821, Example 150] | 65.3 |
| Cc1cc(C(=O)NCc2ccc(Cl)cc2)c(=O)n2c1C(=O)N(CCC1(S(C)(=O)=O)CC1)CC2 [US12466821, Example 151] | 9250 |
| Cc1cc(C(=O)NCc2ccc(Cl)cc2)c(=O)n2c1C(=O)N(CC1(CS(C)(=O)=O)CC1)CC2 [US12466821, Example 154] | 283 |
| CN(CCN1CCn2c(c(F)cc(C(=O)NCc3ccc(Cl)cc3)c2=O)C1=O)S(C)(=O)=O [US12466821, Example 160] | 2020 |
| CS(=O)(=O)C1(CCN2CCn3c(c(F)cc(C(=O)NCc4ccc(Cl)cc4)c3=O)C2=O)CC1 [US12466821, Example 165] | 137000 |
| CS(=O)(=O)C1(CN2CCn3c(c(F)cc(C(=O)NCc4ccc(Cl)cc4)c3=O)C2=O)CC1 [US12466821, Example 167] | 71.8 |
| CS(=O)(=O)CC1(CN2CCn3c(c(F)cc(C(=O)NCc4ccc(Cl)cc4)c3=O)C2=O)CC1 [US12466821, Example 168] | 292 |
| CS(=O)(=O)C1(CCN2CCn3c(ccc(C(=O)NCc4ccc(Cl)cc4)c3=O)C2=O)CC1 [US12466821, Example 170] | 9350 |
| NC1(CN2CCn3c(ccc(C(=O)NCc4ccc(Cl)cc4)c3=O)C2=O)CC1 [US12466821, Example 197] | 3600 |
| CCOC(=O)C1(CN2CCn3c(ccc(C(=O)NCc4ccc(Cl)cc4)c3=O)C2=O)CC1 [US12466821, Example 207] | 2900 |
| O=C(NCc1ccc(Cl)cc1)c1ccc2n(c1=O)CCN(CC1(C(=O)N3CCC3)CC1)C2=O [US12466821, Example 208] | 4530 |
| CN(C)C(=O)C1(CN2CCn3c(ccc(C(=O)NCc4ccc(Cl)cc4)c3=O)C2=O)CC1 [US12466821, Example 209] | 1640 |
| O=C(NCc1ccc(Cl)cc1)c1ccc2n(c1=O)CCN(CC1(C(=O)N3CCOCC3)CC1)C2=O [US12466821, Example 211] | 4770 |
